In patent US9738634B2, “Heterocyclic amide compound and herbicide” (SYNGENTA PARTICIPATIONS AG, priority 2013, dated 2017):

Assays:
Format in all cases: in vivo
Conditions in all cases: treatment dosage 320 g/ha
corn [1] = assay: Test Example 3: soil treatment, effect on crop; c: corn
In short: (§1)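 Crop and weed responses were judged three weeks after a uniform surface spray of the water-diluted emulsion at the given g/ha rate. Seeds sat beneath about 1.5 cm of sterilized diluvial soil, and boxes stood in a greenhouse at 25 to 30° C.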

soybean [2] = assay: Test Example 4: foliar treatment, effect on crop; d: soybean
In short: (§2)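 Seeds are spot-sown into sterilized diluvial soil and covered with about 1.5 cm of soil. After 14 days' greenhouse growth at 25 to 30° C, plants are sprayed on stems and leaves with diluted emulsion at the stated g/ha rate, then scored at 3 weeks.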

common wind-grass [3] = assay: Test Example 3: weedkilling efficacy through soil treatment; J: common wind-grass
In short: as §1

directly sown rice [4] = assay: Test Example 3: soil treatment, effect on crop; b: directly sown rice
In short: as §1

bulrush [5] = assay: Test Example 1: weedkilling efficacy, preemergent weed treatment in the submerged state; B: bulrush
In short: (§3)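 Visual scores against set criteria were taken 3 weeks after treatment. Compounds, as diluted emulsions at specified g/ha, went onto the water surface of 4 cm-flooded alluvial soil pots on the day weeds were sown and 2.5-leaf rice was transplanted; greenhouse held 25–30 °C.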

oval-leafed pondweed [6] = assay: Test Example 2: weedkilling efficacy, growth period weed treatment in the submerged state; C: oval-leafed pondweed
In short: (§4)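 Barnyard grass, bulrush and oval-leafed pondweed sown in alluvial soil under 4 cm flooding, greenhouse 25 to 30° C. At 1-2 leaf stage, water-diluted emulsion applied to the water surface at stated g/ha dosages; effects scored 3 weeks later.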

birds-eye speedwell [7] = assay: Test Example 4: weedkilling efficacy by foliar treatment; p: birds-eye speedwell
In short: as §2

crabgrass [8] = assay: Test Example 3: weedkilling efficacy through soil treatment; D: crabgrass
In short: as §1

common wind-grass [9] = assay: Test Example 4: weedkilling efficacy by foliar treatment; J: common wind-grass
In short: as §2

Italian ryegrass [10] = assay: Test Example 4: weedkilling efficacy by foliar treatment; I: Italian ryegrass
In short: as §2

birds-eye speedwell [11] = assay: Test Example 3: weedkilling efficacy through soil treatment; p: birds-eye speedwell
In short: as §1

wheat [12] = assay: Test Example 3: soil treatment, effect on crop; e: wheat
In short: as §1

redroot pigweed [13] = assay: Test Example 3: weedkilling efficacy through soil treatment; L: redroot pigweed
In short: as §1

Italian ryegrass [14] = assay: Test Example 3: weedkilling efficacy through soil treatment; I: Italian ryegrass
In short: as §1

beet [15] = assay: Test Example 3: soil treatment, effect on crop; f: beet
In short: as §1

corn [16] = assay: Test Example 4: foliar treatment, effect on crop; c: corn
In short: as §2

bulrush [17] = assay: Test Example 2: weedkilling efficacy, growth period weed treatment in the submerged state; B: bulrush
In short: as §4

catchweed [18] = assay: Test Example 3: weedkilling efficacy through soil treatment; O: catchweed
In short: as §1

catchweed [19] = assay: Test Example 4: weedkilling efficacy by foliar treatment; O: catchweed
In short: as §2

wheat [20] = assay: Test Example 4: foliar treatment, effect on crop; e: wheat
In short: as §2

transplanted rice = assay: Test Example 1: preemergent weed treatment in the submerged state, effect on crop; a: transplanted rice
In short: as §3

beet [21] = assay: Test Example 4: foliar treatment, effect on crop; f: beet
In short: as §2

rapeseed [22] = assay: Test Example 4: foliar treatment, effect on crop; g: rapeseed
In short: as §2

wild oat [23] = assay: Test Example 3: weedkilling efficacy through soil treatment; G: wild oat
In short: as §1

oval-leafed pondweed [24] = assay: Test Example 1: weedkilling efficacy, preemergent weed treatment in the submerged state; C: oval-leafed pondweed
In short: as §3

green foxtail [25] = assay: Test Example 4: weedkilling efficacy by foliar treatment; E: green foxtail
In short: as §2

rapeseed [26] = assay: Test Example 3: soil treatment, effect on crop; g: rapeseed
In short: as §1

wild oat [27] = assay: Test Example 4: weedkilling efficacy by foliar treatment; G: wild oat
In short: as §2

chickweed [28] = assay: Test Example 3: weedkilling efficacy through soil treatment; N: chickweed
In short: as §1

barnyard grass [29] = assay: Test Example 2: weedkilling efficacy, growth period weed treatment in the submerged state; A: barnyard grass
In short: as §4

barnyard grass [30] = assay: Test Example 1: weedkilling efficacy, preemergent weed treatment in the submerged state; A: barnyard grass
In short: as §3

Indian mallow [31] = assay: Test Example 4: weedkilling efficacy by foliar treatment; K: Indian mallow
In short: as §2

barnyard grass [32] = assay: Test Example 3: weedkilling efficacy through soil treatment; F: barnyard grass
In short: as §1

black-grass [33] = assay: Test Example 4: weedkilling efficacy by foliar treatment; H: black-grass
In short: as §2

redroot pigweed [34] = assay: Test Example 4: weedkilling efficacy by foliar treatment; L: redroot pigweed
In short: as §2

Indian mallow [35] = assay: Test Example 3: weedkilling efficacy through soil treatment; K: Indian mallow
In short: as §1

soybean [36] = assay: Test Example 3: soil treatment, effect on crop; d: soybean
In short: as §1

green foxtail [37] = assay: Test Example 3: weedkilling efficacy through soil treatment; E: green foxtail
In short: as §1

black-grass [38] = assay: Test Example 3: weedkilling efficacy through soil treatment; H: black-grass
In short: as §1

barnyard grass [39] = assay: Test Example 4: weedkilling efficacy by foliar treatment; F: barnyard grass
In short: as §2

crabgrass [40] = assay: Test Example 4: weedkilling efficacy by foliar treatment; D: crabgrass
In short: as §2

directly sown rice [41] = assay: Test Example 4: foliar treatment, effect on crop; b: directly sown rice
In short: as §2

chickweed [42] = assay: Test Example 4: weedkilling efficacy by foliar treatment; N: chickweed
In short: as §2

fig-leafed goosefoot = assay: Test Example 3: weedkilling efficacy through soil treatment; M: fig-leafed goosefoot
In short: as §1

COc1cc(Cl)nc(NC(=O)C(C)(C)N2COC(C)=C(c3ccccc3)C2=O)c1 [B-2-47]
c (corn) effect on crop grade (corn [1]): 0 (weed kill ratio 5% or less (practically no effect)) | d (soybean) effect on crop grade (soybean [2]): 0 (weed kill ratio 5% or less (practically no effect)) | J (common wind-grass) weedkilling efficacy grade (common wind-grass [3]): 5 (weed kill ratio 90% or more, (practically complete withering)) | b (directly sown rice) effect on crop grade (directly sown rice [4]): 3 (weed kill ratio 40% or more, less than 70%) | B (bulrush) weedkilling efficacy grade (bulrush [5]): 5 (weed kill ratio 90% or more, (practically complete withering)) | C (oval-leafed pondweed) weedkilling efficacy grade (oval-leafed pondweed [6]): 5 (weed kill ratio 90% or more, (practically complete withering)) | P (birds-eye speedwell) weedkilling efficacy grade (birds-eye speedwell [7]): 4 (weed kill ratio 70% or more, less than 90%) | D (crabgrass) weedkilling efficacy grade (crabgrass [8]): 4 (weed kill ratio 70% or more, less than 90%) | J (common wind-grass) weedkilling efficacy grade (common wind-grass [9]): 4 (weed kill ratio 70% or more, less than 90%) | I (Italian ryegrass) weedkilling efficacy grade (Italian ryegrass [10]): 2 (weed kill ratio 20% or more, less than 40%) | P (birds-eye speedwell) weedkilling efficacy grade (birds-eye speedwell [11]): 5 (weed kill ratio 90% or more, (practically complete withering)) | e (wheat) effect on crop grade (wheat [12]): 0 (weed kill ratio 5% or less (practically no effect)) | L (redroot pigweed) weedkilling efficacy grade (redroot pigweed [13]): 0 (weed kill ratio 5% or less (practically no effect)) | I (Italian ryegrass) weedkilling efficacy grade (Italian ryegrass [14]): 5 (weed kill ratio 90% or more, (practically complete withering)) | f (beet) effect on crop grade (beet [15]): 2 (weed kill ratio 20% or more, less than 40%) | c (corn) effect on crop grade (corn [16]): 0 (weed kill ratio 5% or less (practically no effect)) | B (bulrush) weedkilling efficacy grade (bulrush [17]): 5 (weed kill ratio 90% or more, (practically complete withering)) | O (catchweed) weedkilling efficacy grade (catchweed [18]): 4 (weed kill ratio 70% or more, less than 90%) | O (catchweed) weedkilling efficacy grade (catchweed [19]): 3 (weed kill ratio 40% or more, less than 70%) | e (wheat) effect on crop grade (wheat [20]): 0 (weed kill ratio 5% or less (practically no effect)) | a (transplanted rice) effect on crop grade (transplanted rice): 1 (weed kill ratio 5% or more, less than 20%) | f (beet) effect on crop grade (beet [21]): 3 (weed kill ratio 40% or more, less than 70%) | g (rapeseed) effect on crop grade (rapeseed [22]): 3 (weed kill ratio 40% or more, less than 70%) | G (wild oat) weedkilling efficacy grade (wild oat [23]): 2 (weed kill ratio 20% or more, less than 40%) | C (oval-leafed pondweed) weedkilling efficacy grade (oval-leafed pondweed [24]): 5 (weed kill ratio 90% or more, (practically complete withering)) | E (green foxtail) weedkilling efficacy grade (green foxtail [25]): 4 (weed kill ratio 70% or more, less than 90%) | g (rapeseed) effect on crop grade (rapeseed [26]): 3 (weed kill ratio 40% or more, less than 70%) | G (wild oat) weedkilling efficacy grade (wild oat [27]): 2 (weed kill ratio 20% or more, less than 40%) | N (chickweed) weedkilling efficacy grade (chickweed [28]): 3 (weed kill ratio 40% or more, less than 70%) | A (barnyard grass) weedkilling efficacy grade (barnyard grass [29]): 5 (weed kill ratio 90% or more, (practically complete withering)) | A (barnyard grass) weedkilling efficacy grade (barnyard grass [30]): 5 (weed kill ratio 90% or more, (practically complete withering)) | K (Indian mallow) weedkilling efficacy grade (Indian mallow [31]): 0 (weed kill ratio 5% or less (practically no effect)) | F (barnyard grass) weedkilling efficacy grade (barnyard grass [32]): 4 (weed kill ratio 70% or more, less than 90%) | H (black-grass) weedkilling efficacy grade (black-grass [33]): 2 (weed kill ratio 20% or more, less than 40%) | L (redroot pigweed) weedkilling efficacy grade (redroot pigweed [34]): 0 (weed kill ratio 5% or less (practically no effect)) | K (Indian mallow) weedkilling efficacy grade (Indian mallow [35]): 0 (weed kill ratio 5% or less (practically no effect)) | d (soybean) effect on crop grade (soybean [36]): 0 (weed kill ratio 5% or less (practically no effect)) | E (green foxtail) weedkilling efficacy grade (green foxtail [37]): 5 (weed kill ratio 90% or more, (practically complete withering)) | H (black-grass) weedkilling efficacy grade (black-grass [38]): 5 (weed kill ratio 90% or more, (practically complete withering)) | F (barnyard grass) weedkilling efficacy grade (barnyard grass [39]): 1 (weed kill ratio 5% or more, less than 20%) | D (crabgrass) weedkilling efficacy grade (crabgrass [40]): 3 (weed kill ratio 40% or more, less than 70%) | b (directly sown rice) effect on crop grade (directly sown rice [41]): 0 (weed kill ratio 5% or less (practically no effect)) | N (chickweed) weedkilling efficacy grade (chickweed [42]): 2 (weed kill ratio 20% or more, less than 40%) | M (fig-leafed goosefoot) weedkilling efficacy grade (fig-leafed goosefoot): 2 (weed kill ratio 20% or more, less than 40%)
